# According to patent US7504393B2, “Benzylamine analogues” (priority 2001, dated 2009):
# Structures can show the parent of a compound that is named as a salt. Where two headings read alike, the source gives them in different places.
# Tests used:
# serotonin re-uptake = target: T1, serotonin re-uptake (Rattus norvegicus, UniProt P31652); assay: Serotonin re-uptake inhibitory activity (synaptosome, [3H]5-HT); format: biochemical; conditions: synaptosome from rat whole brain except cerebellum; [3H]5-HT, 37° C.; read-out: IC50 (nM) Serotonin re-uptake inhibitory activity
# T1 construct: synaptosome prepared from rat whole brains except the cerebellums; from tissue; host or cells: synaptosomes from rat whole brain except the cerebellum
# T1 sequence (P31652 whole entry): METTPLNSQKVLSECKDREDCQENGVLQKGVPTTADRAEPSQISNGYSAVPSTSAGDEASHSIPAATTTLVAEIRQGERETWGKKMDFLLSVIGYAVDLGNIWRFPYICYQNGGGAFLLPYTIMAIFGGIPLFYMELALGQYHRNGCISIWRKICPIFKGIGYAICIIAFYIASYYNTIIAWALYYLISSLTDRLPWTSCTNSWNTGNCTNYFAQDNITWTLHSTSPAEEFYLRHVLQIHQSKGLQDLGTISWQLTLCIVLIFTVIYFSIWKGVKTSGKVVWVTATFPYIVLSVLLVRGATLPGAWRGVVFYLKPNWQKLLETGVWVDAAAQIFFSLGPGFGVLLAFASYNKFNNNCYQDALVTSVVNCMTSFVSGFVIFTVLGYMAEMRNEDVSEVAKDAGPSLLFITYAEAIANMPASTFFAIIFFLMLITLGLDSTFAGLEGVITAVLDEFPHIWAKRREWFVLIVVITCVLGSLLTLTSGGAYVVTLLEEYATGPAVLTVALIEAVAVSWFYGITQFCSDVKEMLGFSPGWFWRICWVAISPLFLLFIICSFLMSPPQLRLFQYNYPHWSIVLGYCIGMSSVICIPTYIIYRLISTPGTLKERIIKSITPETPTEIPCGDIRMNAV
# Procedure: Serotonin re-uptake inhibitory activity was determined using synaptosome prepared from rat whole brains except the cerebellums. Briefly, 10 μl of DMSO solution-dissolved test substance (control group; DMSO solution alone) was added to 1 ml of synaptosome and incubated for 5 min at 37° C. (in the control, DMSO alone was added to the synaptosome and incubated at 4° C.). Furthermore, 10 μl of [^3H]5-HT solution (final concentration: 10 μM as a total concentration of 5-HT, 100 nM as [^3H]5-HT) was added and incubated for 5 min at 37° C. Then 4 ml of ice-cold saline was added to stop the response. The response solution was filtered, 4 ml of saline was added, and the solution was once again filtered. Furthermore, 5 ml of Pico-Fluor was added, then ^3H levels on filter papers were counted by a liquid scintillation counter. Concentrations of test compounds to inhibit serotonin re-uptake by 50% (IC50) were calculated.
# acetylcholinesterase = target: T2, acetylcholinesterase (Mus musculus, UniProt P21836); assay: biochemical
# T2 construct: phosphate buffer solution containing the brain homogenate; from tissue; host or cells: mouse whole brain homogenate
# T2 sequence (P21836 32-614): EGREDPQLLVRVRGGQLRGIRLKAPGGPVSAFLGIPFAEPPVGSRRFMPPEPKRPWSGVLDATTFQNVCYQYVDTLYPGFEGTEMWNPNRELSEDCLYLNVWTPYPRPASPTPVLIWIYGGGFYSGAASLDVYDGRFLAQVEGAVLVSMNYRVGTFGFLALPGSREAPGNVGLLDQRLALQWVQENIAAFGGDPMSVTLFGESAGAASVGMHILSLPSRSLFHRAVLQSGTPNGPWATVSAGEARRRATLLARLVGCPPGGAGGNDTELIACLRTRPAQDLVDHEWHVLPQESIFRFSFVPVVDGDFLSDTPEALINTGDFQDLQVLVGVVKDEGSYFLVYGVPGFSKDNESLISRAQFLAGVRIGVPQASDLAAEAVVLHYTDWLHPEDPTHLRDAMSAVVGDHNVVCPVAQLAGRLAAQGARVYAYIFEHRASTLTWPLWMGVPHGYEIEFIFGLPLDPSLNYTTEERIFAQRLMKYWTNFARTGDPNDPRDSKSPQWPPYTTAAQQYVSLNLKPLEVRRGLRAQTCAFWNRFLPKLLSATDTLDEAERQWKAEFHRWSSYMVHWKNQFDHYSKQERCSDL
SMILES,IC50 (serotonin re-uptake) [nM],IC50 (acetylcholinesterase) [nM],"IC50 (acetylcholinesterase; mouse whole brain homogenate, acetylthiocholine/DTNB, absorbance 412 nm, read-out: IC50 (nM) Acetylcholinesterase inhibitory activity) [nM]"
"CNC(CCOc1cccc(F)c1)c1ccc(OC(=O)N(C)C)cc1 (stereo not shown) [Test Compound 68, 4-[3-(3-Fluorophenoxy)-1-methylaminopropyl]phenyl dimethylcarbamate hydrochloride]",145,580,–
"CN(C)C(=O)Oc1ccc([C@@H](CCOc2ccc(F)c(F)c2)N(C)C)cc1 [Test Compound 152, (R)-4-[3-(3,4-Difluorophenoxy)-1-dimethylaminopropyl]phenyl dimethylcarbamate hydrochloride]",67,310,–
"CN(C)C(=O)Oc1ccc2c(c1)C=CCN(C)C2CCOc1ccc(F)cc1Cl (stereo not shown) [Test Compound 195, 2-Methyl-1-[2-(2-chloro-4-fluorophenoxy) -ethyl]-2,3-dihydro-1H-benzo[c]azepin-7-yl dimethylcarbamate hydrochloride]",44,50,–
"CN(C)C(=O)Oc1ccc2c(c1)C(CCOc1ccc(Cl)cc1)N(C)CC2 (stereo not shown) [Test Compound 191, 2-Methyl-1-[2-(4-chlorophenoxy)-ethyl]-1,2,3,4-tetrahydroisoquinolin-7-yl dimethylcarbamate hydrochloride]",520,265,–
"CN(C)C(=O)Oc1ccc2c(c1)CCN(C)[C@@H]2CCOc1ccc([N+](=O)[O-])cc1Cl [Test Compound 190, 2-Methyl-1-(R)-[2-(2-chloro-4-nitrophenoxy)-ethyl]-1,2,3,4-tetrahydroisoquinolin-6-yl dimethylcarbamate hydrochloride]",460,12,–
"CN(C)C(=O)Oc1ccc2c(c1)CCN(C)C2CCOc1ccc([N+](=O)[O-])cc1Cl (stereo not shown) [Test Compound 189, 2-Methyl-1-[2-(2-chloro-4-nitrophenoxy)-ethyl]-1,2,3,4-tetrahydroisoquinolin-6-yl dimethylcarbamate hydrochloride]",300,6,–
"CN[C@H](CCOc1ccc([N+](=O)[O-])cc1Cl)c1ccc(OC(=O)N(C)C)cc1 [Test Compound 128, (R)-4-[3-(2-Chloro-4-nitrophenoxy)-1-methylaminopropyl]phenyl dimethylcarbamate hydrochloride]",70,15,–
"Cc1cc(OCCC2c3ccc(OC(=O)N(C)C)cc3C=CCN2C)ccc1Cl (stereo not shown) [Test Compound 194, 2-Methyl-1-[2-(4-chloro-3-methylphenoxy)-ethyl]-2,3-dihydro-1H-benzo[c]azepin-7-yl dimethylcarbamate hydrochloride]",61,103,–
"CNC(CCOc1ccc(Cl)c([N+](=O)[O-])c1)c1cccc(OC(=O)N(C)C)c1 (stereo not shown) [Test Compound 203, 3-[3-(4-Chloro-3-nitrophenoxy)-1-methylaminopropyl]phenyl dimethylcarbamate hydrochloride]",40,49,–
"CN[C@H](CCOc1ccc([N+](=O)[O-])cc1)c1ccc(OC(=O)N(C)C)c(C)c1 [Test Compound 184, (R)-4-[3-(4-Nitrophenoxy)-1-methylaminopropyl]-2-methylphenyl dimethylcarbamate hydrochloride]",49,56,–
"CNC(CCOc1cccc2ccccc12)c1ccc(OC(=O)N(C)C)cc1 (stereo not shown) [Test Compound 179, 4-[3-(Naphthalen-1-yloxy)-1-methylaminopropyl]phenyl dimethylcarbamate hydrochloride]",86,372,–
"CN(C)C(=O)Oc1cccc(C(CCOc2ccc([N+](=O)[O-])cc2)N(C)C)c1 (stereo not shown) [Test Compound 104, 3-[1-Dimethylamino-3-(4-nitrophenoxy)propyl]phenyl dimethylcarbamate hydrochloride]",176,53,–
"CNC(CCOc1ccc(Cl)c(F)c1)c1ccc(OC(=O)N(C)C)cc1 (stereo not shown) [Test Compound 55, 4-[3-(4-Chloro-3-fluorophenoxy)-1-methylaminopropyl]phenyl dimethylcarbamate hydrochloride]",60,280,–
"CN(C)C(=O)Oc1ccc2c(c1)CCCN(C)C2CCOc1ccc([N+](=O)[O-])cc1Cl (stereo not shown) [Test Compound 193, 2-Methyl-1-[2-(2-chloro-4-nitrophenoxy)-ethyl]-1,3,4,5-tetrahydro-1H-benzo[c]azepin-7-yl dimethylcarbamate hydrochloride]",680,–,24
"CN(C)C(=O)Oc1ccc(C(CCOc2cccc(F)c2)N(C)C)cc1 (stereo not shown) [Test Compound 70, 4-[1-Dimethylamino-3-(3-fluorophenoxy)propyl]phenyl dimethylcarbamate hydrochloride]",86,90,–
"CNC(CCOc1ccc(F)cc1)c1ccc(OC(=O)N(C)C)cc1 (stereo not shown) [Test Compound 30, 4-[3-(4-Fluorophenoxy)-1-methylaminopropyl]phenyl dimethylcarbamate hydrochloride]",594,790,–
"CNC(CCOc1ccc(F)c(F)c1)c1ccc(OC(=O)N(C)C)cc1 (stereo not shown) [Test Compound 54, 4-[3-(3,4-Difluorophenoxy)-1-methylaminopropyl]phenyl dimethylcarbamate hydrochloride]",166,670,–
"CNC(CCOc1ccc([N+](=O)[O-])cc1)c1cccc(OC(=O)N(C)C)c1 (stereo not shown) [Test Compound 95, 3-[1-Methylamino-3-(4-nitrophenoxy)propyl]phenyl dimethylcarbamate hydrochloride]",221,52,–
"CN(C)C(=O)Oc1ccc(C(CCOc2ccc(Cl)cc2)N(C)C)cc1 (stereo not shown) [Test Compound 41, 4-[3-(4-Chlorophenoxy)-1-dimethylaminopropyl]phenyl dimethylcarbamate hydrochloride]",507,79,–
"CN(C)C(=O)Oc1ccc2c(c1)CCN(C)C2CCOc1ccc([N+](=O)[O-])cc1 (stereo not shown) [Test Compound 187, 2-Methyl-1-[2-(4-nitrophenoxy) -ethyl]-1,2,3,4-tetrahydroisoquinolin-6-yl dimethylcarbamate hydrochloride]",940,11,–
"CN(C)C(=O)Oc1ccc([C@@H](CCOc2ccc([N+](=O)[O-])cc2)N(C)C)cc1 [Test Compound 102, (R)-4-[1-Dimethylamino-3-(4-nitrophenoxy)propyl]phenyl dimethylcarbamate hydrochloride]",167,170,–
"CNC(CCOc1ccc2ncccc2c1)c1ccc(OC(=O)N(C)C)cc1 (stereo not shown) [Test Compound 180, 4-[3-(Quinolin-6-yloxy)-1-methylaminopropyl]phenyl dimethylcarbamate hydrochloride]",104,111,–
"CN(C)C(=O)Oc1ccc(C(CCOc2c(F)c(F)c(F)c(F)c2F)N(C)C)cc1 (stereo not shown) [Test Compound 181, 4-[3-(Pentafluorophenoxy)-1-dimethylaminopropyl]phenyl dimethylcarbamate hydrochloride]",44,198,–
